Measurements taken from patent US20250127162A1, “METHODS AND COMPOSITIONS FOR CONTROLLING PESTS IN RICE” (Globachem NV, priority 2022, published 2025).

Legend:
Assay type in all cases: in vivo
Diabrotica speciosa = assay: Dry bean field trials, Diabrotica speciosa damage and yield (Example 4); conditions: 150 L water/ha, two applications 7 d apart; for Yield: plot; for % Damage, % UNCK: 28 DAB, Lambda-cyhalothrin 100 at 0.15 L/ha
Description: (§1) All applications were made with an EC formulation containing 650 g/L of pelargonic acid (e.g., 685 g/L of 95% purity pelargonic acid), an anionic emulsifier and a branched fatty acid ester solvent.
Diabrotica speciosa is a major pest in rice.
Dry Beans—Diabrotica speciosa

Rice [1] = assay: Phytotoxicity on rice (Example 1, Trials 1-2, Spain); design: key: % leaf necrosis/discoloration vs untreated plants; conditions: applications AB
Description: (§2) “Low Phytotoxicity” of pelargonic acid, as used herein means that the toxic effect on plants is absent or at such a level so as not to adversely impact the growth and/or yield of the plant under a given set of test conditions, e.g., at a given concentration of pelargonic acid. Phytotoxic effects may be measured in a number of different ways, for example, according to the principals set out in OEPP/EPPO Bulletin (2014) 44 (3), 265-273 “PP 1/135 (4) Phytotoxicity assessment”. The phytotoxic effect on plants may be assessed visually as a function of the percentage of discoloration to the leaves and/or the appearance of necrosis. When the pelargonic acid compositions are applied to the foliage of the rice plants in accordance with the teachings herein, will typically result in a level of phytotoxicity of less than 20%, preferably less than 15%, more preferably less than 10% necrosis of the leaves in comparison to untreated plants. Preferred uses of the invention will typically result in phytotoxicity of 7% or less, whilst the most preferred uses will typically result in phytotoxicity of 5% or less. The above values are approximate as any purely visual assessment is likely to contain a degree of subjectivity.
as §1
(§3) Application A was made to the crops at the beginning of infestations; for these trials, Stage BBCH 59; Application B was made 14 days after Application A.
(§4) Trial 1 was conducted in Spain using a water volume of 300 L/ha of water per application unless otherwise indicated. Pest Incidence/Number of Insects (PESINC) and Pest Severity (PESSEV) as a Percent of Untreated Check (% UNCK) as well as Phytotoxicity were assessed at various treatment evaluation intervals.
as §4, with “2” for “1”

Rice [2] = assay: Phytotoxicity PHYGEN on rice (Example 1, Trials 3-4, Thailand); design: key: % leaf necrosis compared with untreated plants
Description: as §2, §1, §3
Trial 3 was conducted in Thailand using a water volume of 500 L/ha of water per application unless otherwise indicated. Insect Damage (DAMINS %), Insect Damage (Number) and Phytotoxicity were assessed at various treatment evaluation intervals.
Trial 4 was conducted in Thailand using a water volume of 500 L/ha of water per application unless otherwise indicated. Insect Damage (DAMINS %), Insect Damage (Number) and Phytotoxicity were assessed at various treatment evaluation intervals.

[3] = Trial 2, dry bean, listed as PA 812.5 g/ha
[4] = Trial 2, dry bean, listed as PA 975 g/ha
[5] = Trial 2, dry bean, listed as PA 1137.5 g/ha

Compound `CCCCCCCCC(=O)O` [PA 650 g/ha, pelargonic acid] has a Yield (Diabrotica speciosa; Trial 1, dry bean) of 2.09b Ton/ha, a Yield (Diabrotica speciosa; Trial 1, dry bean, listed as PA 812.5 g/ha) of 2.28ab Ton/ha and a Yield (Diabrotica speciosa; Trial 1, dry bean, listed as PA 975 g/ha) of 2.37ab Ton/ha. For the same compound, the Yield (Diabrotica speciosa; Trial 1, dry bean, listed as PA 1137.5 g/ha) was 2.34ab Ton/ha, the “% Damage, % UNCK” value (Diabrotica speciosa; Trial 2, dry bean) was 39.58b % UNCK and the “% Damage, % UNCK” value (Diabrotica speciosa; [3]) was 81.64c % UNCK. For the same compound, the “% Damage, % UNCK” value (Diabrotica speciosa; [4]) was 87.8c % UNCK, the “% Damage, % UNCK” value (Diabrotica speciosa; [5]) was 88.11c % UNCK and the Yield (Diabrotica speciosa; Trial 2, dry bean) was 2.11cd Ton/ha. The Yield (Diabrotica speciosa; [3]) was 2.15cd Ton/ha, the Yield (Diabrotica speciosa; [4]) was 2.19bc Ton/ha and the Yield (Diabrotica speciosa; [5]) was 2.29a Ton/ha. The Phytotoxicity (Rice [1]; Trial 1 (PESINC table), water volume 150 L/ha) was 0, the Phytotoxicity (Rice [1]; Trial 1 (PESINC table), water volume 300 L/ha) was 0 and the Phytotoxicity (Rice [1]; Trial 1 (PESSEV table), water volume 150 L/ha) was 0. The Phytotoxicity (Rice [1]; Trial 1 (PESSEV table), water volume 300 L/ha) was 0, the Phytotoxicity (Rice [1]; Trial 2 (PESINC table), water volume 150 L/ha) was 0 and the Phytotoxicity (Rice [1]; Trial 2 (PESINC table), water volume 300 L/ha) was 0. The Phytotoxicity (Rice [1]; Trial 2 (PESSEV table), water volume 150 L/ha) was 0, the Phytotoxicity (Rice [1]; Trial 2 (PESSEV table), water volume 300 L/ha) was 0 and the “Phytotoxicity (PHYGEN)” value (Rice [2]; Trial 3, 0 DAA, water volume 200 L/ha) was 0. The “Phytotoxicity (PHYGEN)” value (Rice [2]; Trial 3, 0 DAA, water volume 500 L/ha) was 0, the “Phytotoxicity (PHYGEN)” value (Rice [2]; Trial 3, 0 DAB, water volume 200 L/ha) was 0 and the “Phytotoxicity (PHYGEN)” value (Rice [2]; Trial 3, 0 DAB, water volume 500 L/ha) was 0. For the same compound, the “Phytotoxicity (PHYGEN)” value (Rice [2]; Trial 3, 7 DAA, water volume 200 L/ha) was 0, the “Phytotoxicity (PHYGEN)” value (Rice [2]; Trial 3, 7 DAA, water volume 500 L/ha) was 0 and the “Phytotoxicity (PHYGEN)” value (Rice [2]; Trial 3, 7 DAB, water volume 200 L/ha) was 0. For the same compound, the “Phytotoxicity (PHYGEN)” value (Rice [2]; Trial 3, 7 DAB, water volume 500 L/ha) was 0, the “Phytotoxicity (PHYGEN)” value (Rice [2]; Trial 3, 10 DAA, water volume 200 L/ha) was 0 and the “Phytotoxicity (PHYGEN)” value (Rice [2]; Trial 3, 10 DAA, water volume 500 L/ha) was 0. For the same compound, the “Phytotoxicity (PHYGEN)” value (Rice [2]; Trial 3, 10 DAB, water volume 200 L/ha) was 0, the “Phytotoxicity (PHYGEN)” value (Rice [2]; Trial 3, 10 DAB, water volume 500 L/ha) was 0 and the “Phytotoxicity (PHYGEN)” value (Rice [2]; Trial 3, 14 DAB, water volume 200 L/ha) was 0. For the same compound, the “Phytotoxicity (PHYGEN)” value (Rice [2]; Trial 3, 14 DAB, water volume 500 L/ha) was 0, the “Phytotoxicity (PHYGEN)” value (Rice [2]; Trial 3, 21 DAB, water volume 200 L/ha) was 0 and the “Phytotoxicity (PHYGEN)” value (Rice [2]; Trial 3, 21 DAB, water volume 500 L/ha) was 0. For the same compound, the “Phytotoxicity (PHYGEN)” value (Rice [2]; Trial 4, 0 DAA, water volume 200 L/ha) was 0, the “Phytotoxicity (PHYGEN)” value (Rice [2]; Trial 4, 0 DAA, water volume 500 L/ha) was 0 and the “Phytotoxicity (PHYGEN)” value (Rice [2]; Trial 4, 0 DAB, water volume 200 L/ha) was 0. For the same compound, the “Phytotoxicity (PHYGEN)” value (Rice [2]; Trial 4, 0 DAB, water volume 500 L/ha) was 0, the “Phytotoxicity (PHYGEN)” value (Rice [2]; Trial 4, 7 DAA, water volume 200 L/ha) was 0 and the “Phytotoxicity (PHYGEN)” value (Rice [2]; Trial 4, 7 DAA, water volume 500 L/ha) was 0. For the same compound, the “Phytotoxicity (PHYGEN)” value (Rice [2]; Trial 4, 7 DAB, water volume 200 L/ha) was 0, the “Phytotoxicity (PHYGEN)” value (Rice [2]; Trial 4, 7 DAB, water volume 500 L/ha) was 0 and the “Phytotoxicity (PHYGEN)” value (Rice [2]; Trial 4, 10 DAA, water volume 200 L/ha) was 0. For the same compound, the “Phytotoxicity (PHYGEN)” value (Rice [2]; Trial 4, 10 DAA, water volume 500 L/ha) was 0, the “Phytotoxicity (PHYGEN)” value (Rice [2]; Trial 4, 10 DAB, water volume 200 L/ha) was 0 and the “Phytotoxicity (PHYGEN)” value (Rice [2]; Trial 4, 10 DAB, water volume 500 L/ha) was 0. For the same compound, the “Phytotoxicity (PHYGEN)” value (Rice [2]; Trial 4, 14 DAB, water volume 200 L/ha) was 0, the “Phytotoxicity (PHYGEN)” value (Rice [2]; Trial 4, 14 DAB, water volume 500 L/ha) was 0 and the “Phytotoxicity (PHYGEN)” value (Rice [2]; Trial 4, 21 DAB, water volume 200 L/ha) was 0. The “Phytotoxicity (PHYGEN)” value (Rice [2]; Trial 4, 21 DAB, water volume 500 L/ha) was 0.
